The subject of one data set is AhR mRNA. The data set is described as follows: AhR mRNA expression in Hep G2 cells (real-time PCR). The data set is classed as cell-based, human. How it is done: (§1) The logarithmic growth phase Hep G2 cells were seeded into 12-well plastic plates at a density of […]. After incubation at 37 °C under 5% CO2 for 24 h, the media were then replaced with 1 mL of serial dilutions of the DPTM (4.98, 0.16 and 0.08 mM) in fresh media. When cells were incubated for 2, 4 and 12 h at 37 °C under 5% CO2, the RNA was isolated using the Trizol reagent according to the manufacturer’s protocol. Total RNA (5 μL) was transcribed into cDNA by using the PrimeScript RT reagent Kit (Perfect Real Time). The obtained cDNA (5 μL) was added for 45 cycles of PCR amplification to detect the mRNA expression (the primers and sequences used herein were given in Table 3) using the ABI Villa TM7Dx real-time PCR system (Gaithersburg, USA). Glyceraldehyde-3-phosphate dehydrogenase (GAPDH) was used as reference gene. All reactions were performed in a final volume of 20 μL (10 μL of 2 × SYBR Green Real-time PCR Master Mix, 2 μL of cDNA and 2 μL of the primers and 6 μL DEPC water) and executed in triplicate.
(Quantitative PCR measures a nucleic acid by following its amplification.)

The test system of a further data set is S. typhimurium TA97. Briefly: Ames test, strain TA97. The data set is classed as cell-based, Salmonella typhimurium. Conditions: − S9. The text has this:
S. typhimurium strains TA97, TA98, TA100, TA102 and TA1535 were stored and maintained as provided in the standard protocol. Each of the strains was checked for their genetic integrity prior to the experiment, and tested for biotin dependence, histidine dependence, biotin and histidine dependence, rfa marker (crystal violet) and presence of the plasmid pKM101 (ampicillin resistance) or pAQ1 (tetracycline resistance). Different strains were used to identify different types of mutations.
The test was carried out at five different concentrations of DPTM. […] Then 1 mL solution was diluted with distilled water by two fold. […] The negative control used in this experiment was 1 mL DMSO which was directly incorporated into 9 mL melted top agar.
The Ames test of DPTM was conducted as described in the literatures[42],[43] with some modifications. Briefly, 1 mL of strain was inoculated into 5 mL of nutrient broth, followed by incubating overnight at 37 °C. The mixture comprised respective strains, drug, negative and positive controls with the S9 for testing in the presence of metabolic activation system. For testing without S9, 1 × phosphate buffer saline (PBS, pH 7.4) replaced the S9 mix. The obtained mixtures were added into the tube, mixed well and incubated at 37 °C for 20 min. Then, the top agar was melted and 2 mL of this melted top agar was added to each tube and gently mixed. […] The results were expressed as the number of revertant colonies per plate. The experiments were performed in triplicate.
(In general: The Ames test detects mutagens through reverse mutation in bacteria.)

The test system of another data set is CYP3A4 mRNA. The data set is described as follows: CYP3A4 mRNA expression in Hep G2 cells (real-time PCR). The data set is classed as cell-based, human. The note with it: 2 and 4 h, 4.98, 0.16 and 0.08 mM. How it is done: as §1
The target of the next data set is T1, CYP1A2 (Rattus norvegicus, UniProt P04799).
T1 construct: containing 100 μL RLMs or HLMs; tissue Research Institute for Liver Diseases (Shanghai) Co., Ltd; host or cells: male SD rat liver microsomes
T1 sequence (P04799 whole entry): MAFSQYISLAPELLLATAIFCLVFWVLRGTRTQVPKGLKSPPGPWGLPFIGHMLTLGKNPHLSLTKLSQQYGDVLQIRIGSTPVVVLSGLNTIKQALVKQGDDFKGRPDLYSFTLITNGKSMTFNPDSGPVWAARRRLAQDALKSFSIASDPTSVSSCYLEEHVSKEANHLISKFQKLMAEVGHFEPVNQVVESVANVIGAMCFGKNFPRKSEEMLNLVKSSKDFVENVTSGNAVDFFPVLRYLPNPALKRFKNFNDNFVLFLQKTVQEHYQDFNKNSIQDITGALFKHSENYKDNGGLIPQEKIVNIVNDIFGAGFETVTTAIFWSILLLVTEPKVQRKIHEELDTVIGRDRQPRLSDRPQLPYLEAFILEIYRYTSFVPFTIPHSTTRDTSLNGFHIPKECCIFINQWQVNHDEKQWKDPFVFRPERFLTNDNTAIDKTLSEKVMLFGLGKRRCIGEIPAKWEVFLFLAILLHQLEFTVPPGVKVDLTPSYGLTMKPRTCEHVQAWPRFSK
The data set is described as follows: Cocktail CYP inhibition in rat liver microsomes, CYP1A2 (phenacetin). Format: in vitro ADME. Conditions: cocktail method, read-out: IC50 values, CYP1A2 in RLMs. How it is done: (§2) We used the cocktail method to study the inhibition activities of DPTM against CYP enzymes in RLMs and HLMs with slight modification. DPTM (250 μmol) was dissolved in 1.25 mL methanol to a solution and then diluted with methanol and water to 2, 10, 20, 100, 200, 400, 1,000 and 2000 μM, respectively. The obtained serial dilutions (10 μL) were added to the incubation mixtures (200 μL total volume), containing 100 μL RLMs or HLMs (final concentration was 5 μg/μL, respectively), 10 μL glucose-6-phosphate (final concentration was 1 mM), 10 μL glucose-6-phosphate dehydrogenase (final concentration was 0.1 U/L), 20 μL potassium phosphate buffer (final concentration was 0.01 M) and 20 μL MgCl2 (final concentration was 2 mM), to give the final concentrations were 0.1, 0.5, 1, 5 10, 20, 50, and 100 μM, respectively. For the groups that in the absence of DPTM, 10 μL methanol (1%) replaced the DPTM and was added to the incubation mixtures. […] The final concentration of methanol in all the incubation mixtures, including the blank group, was […]. […] The determined metabolic substrates were used for calculating the relative enzyme activity (Erel) by the following formula: Erel (%) = Ci(n)/Ci(0) × 100%, in which Ci(n) was the determined metabolic substrates in the presence of varying concentrations of DPTM and Ci(0) was the determined metabolic substrates in the absence of DPTM. […]
On the technique in general: Microsomes from liver hold many membrane-bound enzymes, among them those of drug oxidation.

The target in another data set is T2, CYP2D1 (Rattus norvegicus, UniProt P10633).
T2 construct: containing 100 μL RLMs or HLMs; tissue Research Institute for Liver Diseases (Shanghai) Co., Ltd; host or cells: male SD rat liver microsomes
T2 sequence (P10633 whole entry): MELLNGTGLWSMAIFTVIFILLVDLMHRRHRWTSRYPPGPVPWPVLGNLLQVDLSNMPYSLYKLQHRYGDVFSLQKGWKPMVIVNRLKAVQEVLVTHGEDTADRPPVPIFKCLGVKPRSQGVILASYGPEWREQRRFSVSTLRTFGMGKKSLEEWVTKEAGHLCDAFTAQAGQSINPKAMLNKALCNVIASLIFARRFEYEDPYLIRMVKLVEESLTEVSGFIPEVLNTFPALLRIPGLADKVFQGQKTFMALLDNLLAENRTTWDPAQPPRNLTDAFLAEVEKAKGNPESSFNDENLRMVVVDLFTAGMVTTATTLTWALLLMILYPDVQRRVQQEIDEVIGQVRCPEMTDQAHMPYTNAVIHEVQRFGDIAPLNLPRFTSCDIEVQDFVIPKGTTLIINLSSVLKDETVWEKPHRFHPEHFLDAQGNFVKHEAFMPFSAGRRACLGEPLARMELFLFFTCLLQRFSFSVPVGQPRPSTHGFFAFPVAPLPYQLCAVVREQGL
Briefly: Cocktail CYP inhibition in rat liver microsomes, CYP2D1 (metoprolol). Format: in vitro ADME. The note with it: cocktail method, read-out: IC50 values, CYP2D1 in RLMs. The method, then:
as §2

On the set-up of data set [1]: method as in PMID 30813235. The note with it: rats, intravenous administration; cited from earlier work.

In the case of `C=CC1(C)CC(OC(=O)CSc2nc(N)cc(N)n2)C2(C)C(C)CCC3(CCC(=O)C32)C(C)C1O` (stereo not shown) [DPTM, 14-O-[(4,6-Diaminopyrimidine-2-yl)thioacetyl] mutilin], the “AhR mRNA content versus control” value with AhR mRNA (2 and 4 h, 4.98, 0.16 and 0.08 mM) was “significantly increased”; in the data set on AhR mRNA (12 h) it was “no effect”. The “revertant colonies per plate, TA97” value in the data set with S. typhimurium TA97 (dose 0.50 μmol/plate) amounted to 165 ± 14 CFU; in the data set on S. typhimurium TA97 (dose 1.00 μmol/plate), 171 ± 8 CFU; in the data set on S. typhimurium TA97 (dose 1.99 μmol/plate), 174 ± 17 CFU; in the data set on S. typhimurium TA97 (dose 3.98 μmol/plate) it was 169 ± 14 CFU. The “CYP3A4 mRNA expression versus control” value with CYP3A4 mRNA is reported as “significantly increase”. Also, the IC50 at CYP1A2 and at CYP2D1 was greater than 100 µM each time. In data set [1], the “half-life (t1/2)” value was 1.7 to 1.9 h.

Values taken from article PMC7417534, “Cytochrome P450 inhibition potential and initial genotoxic evaluation of 14-O-[(4,6-diaminopyrimidine-2-yl)thioacetyl] mutilin” (Scientific Reports, 2020).
